In PubChem BioAssay AID2610 (Broad Institute, 2010) one finds EC50 data, which are given here for twelve molecules.

Inconclusive results are not listed. Activity calls are given as the source filed them.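 The calls were made as follows: active = EC50 no more than tenfold above the top concentration tested, with valid fit and all samples agreeing; inconclusive = flat fit at 30 to 70% inhibition, poor fit, or split samples; inactive = EC50 beyond tenfold the top concentration tested.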 Where only a bound is given, the exact number is not on record here.

The experiment relates to BJeLR fibroblast viability, Alamar Blue fluorescence, 48 h. As to the kind of experiment: cytotoxicity toward RAS-transformed BJeLR fibroblasts, dose response, cell-based, alamar blue fluorescence, 48 h, cherrypicked samples (AID 2610).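 Also: BJ fibroblasts with hTERT plus SV40 large and small T and HRAS V12; EC50 for loss of viable cells so potency reflects cytotoxic compounds.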
As a reminder, the EC50 is the midpoint of the concentration-response curve. For `O=C(c1cc([N+](=O)[O-])ccc1N1CCOCC1)N1CCN(c2ccccc2)CC1`, the EC50 is under 0.104 µM.

In the case of `Cn1cnc(Sc2ncnc3nc[nH]c23)c1[N+](=O)[O-]`, the EC50 is > 13.3 µM (inactive).

Consider `N#CC(C#N)=NNc1ccc(-n2ccc(C(F)(F)F)n2)cc1`, for which the EC50 was 2.65 µM.

On to `CCN(CC)c1ccc(/C=N/NC(=O)c2ccco2)c(O)c1`, for which the EC50 was 0.804 µM.

In the case of `CCc1nc(N)nc(N)c1-c1ccc(Cl)cc1`, the EC50 was > 13.3 µM (inactive).

On to `C/C(=N\Nc1ccc2nncn2n1)c1ccccn1`, for which the EC50 was 1.14 µM.

As to `O=[N+]([O-])c1ccccc1N/N=C\c1ccccc1Cl`, the EC50 was > 13.3 µM (inactive).

With `O=C(CCl)N(CCCNC(=O)C(F)(F)F)c1ccc([N+](=O)[O-])cc1`, the EC50 was 0.424 µM.

For the molecule `Cc1ccc(-c2nn(CC(=O)NCc3cc(-c4nn(C)c(=O)c5ccccc45)ccc3C)c(=O)c3ccccc23)cc1`, the EC50 was > 13.3 µM (inactive).

With `CC1(C)N=C(N)N=C(N)N1c1ccccc1`, the EC50 was > 13.3 µM (inactive).

For the molecule `Cc1cccc2cc(C#N)c(SCC(=O)N3CC(=O)Nc4ccccc43)nc12`, the EC50 was under 0.104 µM.

For the molecule `CC(C)(C)c1ccc(C(=O)Nc2ccc(C(=O)NCc3cccnc3)cc2)cc1`, the EC50 is under 0.118 µM.
